Results as given in US8258296B2, “Crystalline antifungal compounds” (Palau Pharma, S.A., priority 2006, dated 2012).

Key:
Format in all cases: physicochemical
[1] = Storage stability, detection of degradation products
Description: (§1) Accordingly, the present subject matter relates to methods of identifying, obtaining, and purifying the various crystalline forms of (1R,2R)-7-chloro-3-[2-(2,4-difluorophenyl)-2-hydroxy-1-methyl-3-(1H-1,2,4-triazol-1-yl)propyl]quinazolin-4(3H)-one. These crystalline forms, namely Forms I-VI, were identified as six distinct crystal forms. Certain physical characteristics of these crystalline forms generated during crystallization studies, are as follows: • Form I: typically obtained by crystallizing the amorphous form using supercritical CO2 crystallization conditions. […] Diethyl ether can then be optionally added. […] Form V can best be characterized as a crystalline phase containing between about 2 and about 7% by weight of ethyl acetate and about 0.5 to about 2.5% by weight of hexane. • Form VI: typically obtained by slurrying (1R,2R)-7-chloro-3-[2-(2,4-difluorophenyl)-2-hydroxy-1-methyl-3-(1H-1,2,4-triazol-1-yl)propyl]quinazolin-4(3H)-one in aqueous ethanol or by slowly cooling a saturated aqueous ethanol solution that was seeded. This form may be obtained when the slurry comprises any other Form of (1R,2R)-7-chloro-3-[2-(2,4-difluorophenyl)-2-hydroxy-1-methyl-3-(1H-1,2,4-triazol-1-yl)propyl]quinazolin-4(3H)-one, such as, for example, the amorphous form, Form III, Form IV, Form V, or combinations thereof. […]

[2] = Solid-form conversion on extended storage; settings: storage for 3 months at 40° C. and 75% RH
Description: as §1

[3] = Slurry experiment to estimate rate of conversion of Form III to Form VI (XRPD); settings: slurry at 45° C. in ethanol-water (1:9), seeded with Form VI, XRPD analysis
Procedure: Form VI may be prepared by slurrying albaconazole in aqueous ethanol or by slowly cooling a saturated aqueous ethanol solution that was seeded. In order to estimate rate of conversion, a slurry experiment of Form III was setup at 45° C. in ethanol-water (1:9), seeded with Form VI and aliquots periodically removed. Solids from the first aliquot removed after ˜3 hours were composed of only Form VI by XRPD analysis. A slow cool method was also attempted by cooling a saturated solution of albaconazole in aqueous ethanol that was seeded. Form VI solids were isolated in a 41% yield.

[4] = Hygroscopicity characterisation

Compound	degradation products detected after storage ([1]; 6 months of storage at 25° C./60% RH)	degradation products detected after storage ([1]; 6 months of storage at 30° C./65% RH)	conversion of the original form to Form IV on storage [2]	time to complete conversion of slurry to Form VI [3]	hygroscopicity [4]
C[C@@H](n1cnc2cc(Cl)ccc2c1=O)[C@](O)(Cn1cncn1)c1ccc(F)cc1F [Form III, (1R,2R)-7-chloro-3-[2-(2,4-difluorophenyl)-2-hydroxy-1-methyl-3-(1H-1,2,4-triazol-1-yl)propyl]quinazolin-4(3H)-one]	No degradation products	No degradation products	some but not all of the original form converts to Form IV	~3 h	
C[C@@H](n1cnc2cc(Cl)ccc2c1=O)[C@](O)(Cn1cncn1)c1ccc(F)cc1F [Form VI, (1R,2R)-7-chloro-3-[2-(2,4-difluorophenyl)-2-hydroxy-1-methyl-3-(1H-1,2,4-triazol-1-yl)propyl]quinazolin-4(3H)-one]					non-hygroscopic
